Experimental findings from US20260256135A1, “SOLVENT COMPOSITION FOR AGROCHEMICAL FORMULATIONS” (SPECIALTY OPERATIONS FRANCE, priority 2023, published 2026) are described below.

Each structure is given as a SMILES string.

The series is described as follows: Test 1: maximal solubility of an active (solo) in a solvent system, visual observation. The class given is physicochemical. Particulars: active dissolved in the solvent system; limpid with the naked eye. From the text:
The maximal solubility of an active or a combo of actives in a solvent system is characterized by visual observation. At a given concentration, if the mixture is limpid (with the naked eye), the active ingredient(s) is (are) considered to be soluble in the solvent system at this concentration. However, if a sedimentation of the active ingredient(s) appears, it is not soluble anymore in the solvent system and the maximal solubility is reached. The maximal solubility is thus defined as the maximum amount of active ingredient(s) that can be dissolved in the solvent system, equal to the amount at which the mixture remains limpid (with the naked eye). Each active ingredient or combo is added little by little in different solvent systems. The solutions are magnetically stirred until complete dissolution. Then an additional amount of active ingredient is added and this operation is repeated until the last part of active ingredient added could not be dissolved anymore, taking care to stir the solution after each addition of active ingredient.

Regarding `CCCCOC(=O)CCC(C)=O` [GFbio ReSolv 200, n-butyl levulinate], the “maximal solubility of Difenoconazole” value is reported as 44.5 g/100 g of solvent, the “maximal solubility of Picoxystrobin” value is given as 27.3 g/100 g of solvent and the “maximal solubility of Pinoxaden” value was 11.4 g/100 g of solvent.

For the compound `COC(=O)C(C)CCC(=O)N(C)C` (stereo not drawn) [Rhodiasolv ® Polarclean, methyl-5-(dimethylamino)-2-methyl-5-oxopentanoate], the “maximal solubility of Difenoconazole” value is listed as 65.5 g/100 g of solvent, the “maximal solubility of Picoxystrobin” value was 43.9 g/100 g of solvent and the “maximal solubility of Pinoxaden” value is 13.0 g/100 g of solvent.
